Experimental data as given in patent US12459951B2, “Compounds that interact with RAS superfamily proteins for treatment of cancers, inflammatory diseases, rasopathies, and fibrotic disease” (SHY Therapeutics, LLC, priority 2022, dated 2025).

Assays:
MAPK p38 phosphorylation = assay: MAPK p38 Activation Assay (western blot), Panc-1; format: cell-based, human; conditions: at 10 μM, Panc-1 pancreatic cancer cell line; starred symbols = activation
Procedure, shortened: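 Panc-1 cells (KRas G12D) were treated with compound for 6 h at 37 °C, at 10 μM or as serial dilutions for IC50, with 0.3% DMSO. Method 1 used overnight serum-starved cells (0.5% FBS) stimulated with 1.5 ng/ml EGF for 15 min; Method 2 used unstimulated cells in 10% FBS. Phospho-p38 (Thr180/Tyr182) was detected by western blot.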

TNF-alpha = TNF-alpha Quantification Assay (ELISA), LPS-stimulated RAW 264.7; format: cell-based; conditions: Mus musculus, RAW264.7; at 10 μM; read-out: TNFα: % inh.
KRas G12D mutant = assay: Ras GTP Binding Domain Inhibition Assay (Ras Superfamily Assay); conditions: for KRas G12D mutant + SOS: % inh.: with SOS; for KRas G12D mutant: % inh.: without SOS
Procedure, shortened: (§1)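 Ni-plate capture of His-tagged protein (10-30 μg/mL, o/n 4° C); cpd 20 μM or dilution series, 1% DMSO, 3 h RT ± Sos 556-1049 last h; 100 nM Cy-labelled GTP 45 min RT; 3× wash; fluorescence read.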

KRas wild type = assay: as above; conditions: for KRas wild type + SOS: % inh.: with SOS; for KRas wild type: % inh.: without SOS
Procedure, shortened: as §1

Rac-1 = target: T1, Rac-1 (Homo sapiens, UniProt P63000); assay: as above; conditions: read-out: Rac-1: % inh.
T1 construct: made in house
Procedure, shortened: as §1

Structure (SMILES)	% inh of MAPK p38 in Panc-1 (MAPK p38 phosphorylation)	inhibition at 10 µM (TNF-alpha) [%]	KRas G12D mutant + SOS: % inh. (KRas G12D mutant; 20 μM compound)	KRas G12D mutant: % inh. (KRas G12D mutant; 20 μM compound)	KRas wild type + SOS: % inh. (KRas wild type; 20 μM compound)	KRas wild type: % inh. (KRas wild type; 20 μM compound)	inhibition at 20 µM (Rac-1) [%]	KRas G12D mutant + SOS: % inh. (KRas G12D mutant; at 20 μM)	KRas G12D mutant: % inh. (KRas G12D mutant; at 20 μM)	KRas wild type + SOS: % inh. (KRas wild type; at 20 μM)	KRas wild type: % inh. (KRas wild type; at 20 μM)
COc1cccc(-c2cn3nc(-c4nccn4C)nc(O)c3c2C)c1Cl [Compound 15, 6-(2-Chloro-3-methoxyphenyl)-5-methyl-2-(1-methyl-1H-imidazol-2-yl)pyrrolo[2,1-f][1,2,4]triazin-4-ol]	H* (H* ≥ 100% activation)	0	0 (0 = 0% inhibition)	A (A = 1-25% inhibition)	A (A = 1-25% inhibition)	A (A = 1-25% inhibition)	0				
COCCNc1nc(-c2nccn2C)nn2cc(-c3cccnc3)c(-c3ccccc3)c12 [Compound 195, N-(2-Methoxyethyl)-2-(1-methyl-1H-imidazol-2-yl)-5-phenyl-6-(pyridin-3-yl)pyrrolo[2,1-f][1,2,4]triazin-4-amine]	E* (E* = 1-30% activation)	0					1 to 25	A (A = 1-25% inhibition)	A (A = 1-25% inhibition)	0 (0 = 0% inhibition)	A (A = 1-25% inhibition)
